From patent US20200392223A1, “IL-17A ACTIVITY INHIBITOR AND USE THEREOF” (TOKAI UNIVERSITY EDUCATIONAL SYSTEM, priority 2018, published 2020)

Experiments:
[1] = tested on: rat nucleus pulposus (NP) cell; assay: mRNA expression (real time RT-PCR) in rat NP cells treated with IL-17A under 1% oxygen; type: cell-based; settings: 24 hours
Description: Nucleus pulposus cells were separated from a Sprague Dawley rat aged 11 weeks according to a method in Risbud et al (Journal of cellular biochemistry 98, 152-159, 2006; doi:10.1002/jcb.20765). In short, lumbar and coccygeal intervertebral discs of a deeply anesthetized rat were dissected under an aseptic condition, gel-like nucleus pulposus was separated from intervertebral disc annulus fibrosus (AF), the nucleus pulposus was minced and pipetted, and then the nucleus pulposus was cultured in a Dulbecco's Modified Eagle Medium (DMEM) in which 20% FBS and antibiotics were added at 20% O2, 5% CO2, and 37° C. for about 1 to 2 weeks, and then was cultured in DMEM in which 10% FBS and antibiotics were added for about 1 to 2 weeks.
The cultured rat nucleus pulposus cells were treated with 20 or 50 ng/mL of recombinant mouse IL-17A (Pepro Tech Inc., USA, #210-17) for 24 hours, expression levels of mRNAs of IL-6, COX-2, mPGES1, MMP-3, and MMP-13 were determined by real time RT-PCR according to the following procedure. Total RNA was extracted from the nucleus pulposus cells using an RNAeasy mini-column (Qiagen, Germany). Before elution from the column, RNA was treated with RNase-Free DNase I (Qiagen, Germany). The purified DNA-free RNA was transformed into cDNA using a High Capacity cDNA Reverse Transcription Kit (Applied Biosystems, USA). Template cDNA and a primer specific to each gene were added to Power SYBR Green master mix (Applied Biosystems) and an expression level of mRNA of each gene was determined using Step One Plus Real-time PCR System (Applied Biosystems). The expression level was normalized to β actin. It was verified by melting curve analysis that RT-PCR was specific and a primer dimer was not formed. […]
In (B) and (C), among the compounds of the present invention, only the compound (3) which is considered from the results of (A) described below to have the highest effect on IL-6 and COX-2 was used.
A p38 phosphorylation inhibitor “SB203580” with a concentration of 10 μM, a JNK phosphorylation inhibitor “SP600125” with a concentration of 10 μM, or an ERK phosphorylation inhibitor “PD98059” with a concentration of 10 μM was administered to rat NP cells together with recombinant mouse IL-17A with a concentration of 50 ng/ml, or alternatively, these inhibitors were not administered, and the cells were cultured under a 1% oxygen condition for 24 hours, and an expression level of mRNA of each of COX-2 and IL-6 was determined by real time RT-PCR according to the same procedure as that of [Reference Example 2]. […]

[2] = tested on: rat intervertebral disc degeneration model; assay: Rat intervertebral disc degeneration model; type: in vivo; settings: 1 mg in 10 μL DMSO injected into degenerated disc on day 14, evaluated day 28
Description: A 23G needle was inserted into a caudal intervertebral disc of a 11-weeks-old male SD rat (weight: 300 to 350 g) by about 5 mm, rotated at 360°, and left for 30 seconds to cause intervertebral disc degeneration (day 0). 14 days (day 14) after being subjected to the intervertebral disc degeneration, 10 μL of a DMSO solution containing 1 mg of the compound (3) (database registration number: STK630921) was injected to the degenerated intervertebral disc (STK group=compound (3) treated group). […]
28 days (day 28) after being subjected to the intervertebral disc degeneration, the caudal vertebrae of the rats in the STK group, the Sham group, the degeneration group, and the normal group were collected, fixed in 4% PFA, and decalcified, thereby preparing sample sections. […] In each sample subjected to the immunostaining, the number of IL-6 positive cells in spots of the same area arbitrarily set at 3 or 4 locations in the intervertebral disc tissue was counted with the same magnification field of view, and an expression rate of the IL-6 positive cells with respect to a total number of cells in the same spot was calculated.

[3] = tested on: mouse psoriasis skin model; assay: Mouse psoriasis skin model (imiquimod cream); type: in vivo
Description: About 1×1.5 cm of back of 10-week-old male BJ6J mouse was shaved, and imiquimod (IMQ, a drug causing psoriasis-like dermatitis in a mouse) cream was applied every day from day 1 to day 4. From the 5th day (day 5) after the first IMQ cream application, 6 to 8 hours after the application of the IMQ cream, a DMSO solution containing 1 mg of the compound (3) (database registration name: STK630921) was applied (STK group=compound (3) treated group). The same IMQ cream and the solution of the compound (3) were applied every day from the 6th day (day 6) to the 9th day (day 9). […]
On the 10th day (day 10), skin of the mice in each of the STK group, the Sham group, the IMQ group, and the normal group was collected, and one sample obtained by hematoxylin eosin (HE) staining and one sample obtained by immunofluorescence staining using an anti-CXCL1 antibody were prepared per mouse. In the HE stained samples, for each sample, a thickness of an epidermis layer was measured at two or more locations with the same magnification field of view, and an average value was statistically analyzed (significant difference: p<0.05, n=3).

p38 = assay: Phosphorylation of MAPK factors (western blotting) in rat NP cells treated with IL-17A; type: cell-based; settings: 50 μg/ml + IL-17A 50 ng/ml, 1% oxygen
Description: In rat nucleus pulposus cells subjected to treatment for 24 hours in 50 ng/mL of IL-17A in which the most remarkable increases of IL-6 and COX-2 were observed, an expression level of a protein of each of IL-6 and COX-2, and β actin used as a control was determined by western blotting according to the following procedure. The nucleus pulposus cells were placed on ice and then washed with ice-cold PBS. In order to prepare total cell proteins, the cells were lysed with a lysis buffer containing 10 mM Tris-HCl (pH 7.6), 50 mM NaCl, 5 mM EDTA, 1% Nonidet P-40, a complete protease inhibitor cocktail (Roche AG, USA), 1 mM NaF, and 1 mM Na3VO4. The proteins were fractionated by SDS-PAGE and transferred onto Immobilon-P polyvinylidene difluoride membrane (Millipore Corporation, USA). […] Western blotting data were quantified by densitometric scanning of a film using Macintosh computer software “CS Analyzer” (ATTO Corporation, Japan). […]
It is reported that IL-17A is likely to be involved in the expression of COX-2 through a MAPK pathway. Involvement of IL-17A in MAPK factors (p38, JNK, and ERK) with respect to the expression of each of COX-2 and IL-6, and influence of the compound (1) of the present invention on these MAPK factors were evaluated by the following method. […]

[4] = inhibitor 10 μM + IL-17A 50 ng/ml
[5] = compound 50 μg/ml + IL-17A 50 ng/ml, vs IL-17A only

| SMILES | expression level of mRNA of COX-2 [1, 5] | expression level of mRNA of IL-6 [1, 5] | expression level of mRNA of MMP-3 [1, 5] | expression level of mRNA of MMP-13 [1, 5] | expression level of mRNA of mPGES1 [1, 5] | further results |
| --- | --- | --- | --- | --- | --- | --- |
| C[S+]([O-])c1ccc(-c2nc(-c3ccncc3)c(-c3ccc(F)cc3)[nH]2)cc1 (centres unmarked) [SB, SB203580, reference compound] |  |  |  |  |  | expression level of mRNA of COX-2 [1, 4]: significantly suppressed; expression level of mRNA of IL-6 [1, 4]: significantly suppressed |
| CC(NC(=O)Cc1nnc(O)c2ccccc12)C(=O)NCC1CCC(C(=O)O)CC1 (centres unmarked) [(3)] | remarkably reduced | remarkably reduced | significantly reduced | significantly reduced | significantly reduced | expression rate of the IL-6 positive cells [2]: significantly reduced; thickness of the epidermis layer ([3]; DMSO solution containing 1 mg applied day 5 to day 9, skin collected day 10, HE staining): significantly reduced; expression of CXCL1 ([3]; DMSO solution containing 1 mg applied day 5 to day 9, skin collected day 10, immunofluorescence area): significantly reduced |
| C=C(C)COc1ccc2c(C)c(CC(=O)N(C)C[C@H](O)[C@H](O)[C@H](O)[C@H](O)CO)c(=O)oc2c1C [(11)] | significantly reduced | significantly reduced | significantly reduced | significantly reduced | significantly reduced |  |
| COc1cccc(-c2cc(=O)c3ccccc3o2)c1N [PD, PD98059, reference compound] |  |  |  |  |  | expression level of mRNA of COX-2 [1, 4]: significantly suppressed; expression level of mRNA of IL-6 [1, 4]: significantly suppressed |
| CC(C)NC(=O)CCCCn1c(=O)c2ccccc2n(CC(=O)Nc2ccc3c(c2)OCO3)c1=O [(9)] |  | significantly reduced |  |  |  |  |
| C[C@H](NC(=O)Cc1nnc(O)c2ccccc12)C(=O)NCC1CCC(C(=O)O)CC1 (some centres unmarked) [(1)] | excellent in the action |  |  |  |  | phosphorylation of p38 (p38; 15 minutes): reduced; phosphorylation of p38 (p38; 30 minutes, vs IL-17A single administration group): significant reduction |
| COc1ccc(C[C@@]2(C)NC(=O)N(CC(=O)Nc3ccc(N4CCCC4=O)cc3)C2=O)cc1OC [(5)] | significantly reduced | significantly reduced | significantly reduced | significantly reduced | significantly reduced |  |
